“And” between values parts separate entries of the source, which are not always exact repeats. Equal entries are not always repeated. Structures can show the parent of a compound that is named as a salt. Where two headings read alike, the source gives them in different places.

One data set relates to Vero cells. Put plainly: MTT antiproliferation assay, non-cancerous Vero cells. It is filed as cell-based, African green monkey. As to conditions: Chlorocebus sabaeus, Vero; 48 h, MTT. Here is the method: (§1) Cancerous cell lines (MCF-7: human breast adenocarcinoma cells; HepG2: human hepatocellular carcinoma cells; Caco-2: human epithelial colorectal adenocarcinoma cells; A549: human epithelial lung adenocarcinoma cells), obtained from the American Type Culture Collection (ATCC) (Rockville, MD, United States of America), were cultured in Dulbecco’s Modified Eagle’s Medium (DMEM) high glucose (4.5 g/L) containing L-glutamine (4 mM) and sodium-pyruvate (Hyclone™) supplemented with 10% (v/v) fetal bovine serum (FBS) (Capricorn Scientific GmbH, South America), and incubated at 37°C with 5% CO2 in a humidified environment. African green monkey (Vero) kidney cells (also obtained from ATCC), a non-cancerous cell line, were grown in DMEM high glucose (4.5 g/L) containing L-glutamine (Lonza, Belgium) and supplemented with 5% FBS (Capricorn Scientific GmbH, South America) and 1% gentamicin (Virbac, RSA) in the same environment as cancer cells. The RAW 264.7 murine macrophage cells (obtained from ATCC) were cultured in DMEM high glucose (4.5 g/L) containing L-glutamine (Lonza, Belgium), supplemented with 10% FBS (Capricorn Scientific GmbH, South America) and 1% penicillin/streptomycin/fungizone (PSF) solution, and kept at 37°C in a 5% CO2 humidified environment.
(§2) The cancerous and non-cancerous cells were seeded at a density of 10^4 cells per well in 96-well microtiter plates, and they were incubated overnight at 37°C with 5% CO2 in a 5% CO2 humidified environment in order to allow the attachment of cells at the bottom of the plates. Then, the cells were exposed to increasing concentrations of compounds (100, 50, 25, 10 and 5 μg/mL) dissolved in dimethyl sulfoxide (DMSO) and further diluted in fresh culture medium. In this assay, the final concentration of DMSO in the culture medium was 0.5% used as negative control while doxorubicin hydrochloride (Pfizer, United States of America) was used as a positive control. The culture plates were incubated for 48 h at 37°C in a 5% CO2 humidified environment, after which the culture medium was discarded, and replaced by 200 µL of fresh culture medium with 30 µL of 3-(4,5-dimethylthiazol-2-yl)-2,5-diphenyl-2H-tetrazolium bromide (MTT) (5 mg/mL) dissolved in phosphate buffered saline ([Mosmann, 1983]). After 4 h of incubation, the medium was gently removed, and the formazan crystals were solubilized in 50 µL of DMSO. The absorbance was measured at 570 nm after shaking for 1 min on a microplate reader (Synergy Multi-Mode Reader, BioTek, Winooski, United States of America).
(§3) The cell viability rate was determined at each concentration of the compound as a percentage of cells treated with DMSO at 0.5% used as negative control. […] The selectivity index (Supporting Material) values were calculated for each compound by dividing the IC50 of non-cancerous cells by the IC50 of cancerous cells in the same units ([Mfotie Njoya et al., 2018]; [Mfotie Njoya et al., 2020]).
For orientation: Tetrazolium assays rely on reduction of a dye to a coloured formazan, in cell work by metabolically active cells.

A further data set concerns MCF-7 cells. Put plainly: MTT antiproliferation assay, MCF-7. It is filed as cell-based, human. Particulars: for IC50: Homo sapiens, MCF7, 48 h, MTT. Here is the method:
as §1, §2, §3

The subject of the next data set is HepG2 cells. Kind of data set: MTT antiproliferation assay, HepG2. It counts as cell-based, human. As to conditions: for IC50: Homo sapiens, HepG2, 48 h, MTT; for SI values HepG2: IC50 of non-cancerous Vero cells divided by IC50 of HepG2. Here is the method:
as §1, §2, §3

A further data set relates to Caco-2 cells. Put plainly: MTT antiproliferation assay, Caco-2. Particulars: for IC50: Homo sapiens, Caco-2, 48 h, MTT. It counts as cell-based, human. As to the method:
as §1, §2, §3

For the next data set, the system named is A549 cells. Kind of data set: MTT antiproliferation assay, A549. It counts as cell-based, human. Particulars: for IC50: Homo sapiens, A549, 48 h, MTT. Here is the method: as §1, §2, §3
The subject of data set [1] is NO production in LPS-stimulated RAW 264.7 cells. Kind of data set: Nitric oxide production inhibitory assay (Griess) in LPS-stimulated RAW 264.7 cells. It is filed as cell-based, murine. Particulars: Mus musculus, RAW264.7; LPS (2 μg/mL), 24 h. As to the method:
as §1
Nitric oxide (NO) production was evaluated in lipopolysaccharide (LPS)-stimulated RAW 264.7 cells by measuring the influence of tested compounds on the accumulation of nitrite, an indicator of NO in the cell supernatant, which can be detected with Griess reagent (Merck, Darmstadt, Germany). Briefly, the RAW 264.7 cells at their exponential growth phase were seeded at a density of 2×10^4 cells per well in 96 well-microtiter plates, and they were incubated overnight at 37°C in a 5% CO2 humidified environment to allow attachment. […] Then, culture medium containing LPS (2 μg/mL) was added to each well and further incubated for 24 h at 37°C in a 5% CO2 humidified environment. Thereafter, 100 μL of cell supernatant from each well were transferred into a new 96-well microtiter plate and an equal volume of Griess reagent was added according to protocol described by the manufacturer. The microtiter plate was incubated for 10 min in the dark at room temperature, and the absorbance of the mixture was measured at 550 nm on a microplate reader (Synergy Multi-Mode Reader, BioTek, Winooski, United States of America). The quantity of nitrite was determined from a sodium nitrite standard curve, and the percentage of NO production was calculated based on the ability of each tested sample to inhibit nitric oxide production by LPS-stimulated RAW 264.7 cells compared to the control (cells treated with LPS without samples which was considered as 100% NO production). Additionally, the cell viability of treated cells was determined by using the MTT assay as previously described ([Mosmann, 1983]).
On the technique in general: The Griess reaction detects nitrite, a stable product of nitric oxide.

For a further data set, the target named is T1, 15-LOX (Glycine max, UniProt P08170).
T1 construct: purchased Merck, Darmstadt, Germany
T1 sequence (P08170 1-839): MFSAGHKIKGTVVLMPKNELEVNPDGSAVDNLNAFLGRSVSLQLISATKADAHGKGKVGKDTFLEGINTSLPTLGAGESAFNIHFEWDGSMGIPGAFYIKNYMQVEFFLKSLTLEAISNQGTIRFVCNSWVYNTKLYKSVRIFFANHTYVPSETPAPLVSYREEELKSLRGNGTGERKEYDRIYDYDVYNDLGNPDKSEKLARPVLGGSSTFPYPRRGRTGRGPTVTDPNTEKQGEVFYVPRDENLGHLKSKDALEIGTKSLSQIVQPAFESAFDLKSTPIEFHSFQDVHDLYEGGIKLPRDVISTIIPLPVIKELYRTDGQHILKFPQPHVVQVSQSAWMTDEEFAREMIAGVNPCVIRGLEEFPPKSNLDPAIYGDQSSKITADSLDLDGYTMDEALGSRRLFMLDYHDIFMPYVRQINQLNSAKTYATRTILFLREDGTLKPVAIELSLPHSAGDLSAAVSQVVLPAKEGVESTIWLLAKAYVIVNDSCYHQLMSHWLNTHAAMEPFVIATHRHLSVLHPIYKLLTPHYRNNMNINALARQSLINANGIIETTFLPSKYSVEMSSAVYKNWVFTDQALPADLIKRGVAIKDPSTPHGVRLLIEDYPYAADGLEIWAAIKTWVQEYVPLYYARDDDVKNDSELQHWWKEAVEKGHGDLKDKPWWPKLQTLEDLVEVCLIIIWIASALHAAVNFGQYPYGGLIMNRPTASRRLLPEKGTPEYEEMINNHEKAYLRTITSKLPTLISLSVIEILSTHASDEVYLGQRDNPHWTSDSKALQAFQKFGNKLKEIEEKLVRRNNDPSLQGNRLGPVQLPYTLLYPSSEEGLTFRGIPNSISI
Kind of data set: Soybean 15-LOX inhibitory assay (FOX). As to conditions: linoleic acid 140 μM, pH 7.4, 25°C. It counts as biochemical. As to the method: This assay is based on the formation of the Fe^3+/xylenol orange (FOX) complex with maximal absorption at 560 nm ([Pinto et al., 2007]). Forty microliters of 15-LOX (final concentration: 200 UI/mL) from Glycine max (Merck, Darmstadt, Germany) was incubated with 20 µL of tested samples (100, 50, 25, 10, and 5 μg/mL) at 25°C for 5 min, with DMSO at 10% (v/v) being used as negative control. Thereafter, 40 µL of linoleic acid (final concentration, 140 μM) prepared in Tris-HCl buffer (50 mM, pH 7.4) was added, and the plates were further incubated at 25°C for 20 min in the dark. The assay was terminated by adding 100 μL of FOX reagent [sulfuric acid (30 mM), xylenol orange (100 μM), ferrous II) sulfate (100 μM), dissolved in methanol/water (9:1)], followed by the incubation of the plates at 25°C for 30 min in the dark. Finally, the absorbance was measured at 560 nm on a microplate reader (Epoch, BioTek, Winooski, United States of America). The blanks were made in the same way as tested samples except that the substrate was added after the FOX reagent. The 15-LOX inhibitory activity was calculated by using the following formula: 15−LOX inhibitory activity %=100−Abs sample−Abs blank/Abs negative control−Abs blank×100 (1)

The mark [2] stands for this setting: read-out: IC50 values 15-LOX (converted).

Regarding `CC1(C)CC[C@]2(C)CC=C3[C@]4(C)CC[C@H]5C(C)(C)[C@@H](O)CC[C@]5(C)[C@H]4CC[C@@]3(C)[C@@H]2C1` [Compound 4, taraxerol], the IC50 (as a rule, the concentration at which inhibition is half-maximal) in the data set on Vero cells was > 100 µg/mL and > 234 µM; with MCF-7 cells it was 81.3 µg/mL and 191 µM; in the data set with HepG2 cells it was 54.2 µg/mL and 127 µM; in the data set on Caco-2 cells it was > 100 µg/mL and > 234 µM; in the data set with A549 cells it was 177 µM and 75.6 µg/mL; in data set [1] it was > 100 µg/mL and > 234 µM. Also, the IC50 at 15-LOX (setting [2]) was above 234 µM.

For `C[C@H]1[C@H](C)CC[C@]2(C)CC[C@]3(C)C(=CC[C@@H]4[C@@]5(C)CC[C@H](O)C(C)(C)[C@@H]5CC[C@]43C)[C@H]12` [Compound 5, α-amyrin (3β-hydroxy-urs-12-en-3-ol)], the IC50 in the data set on Vero cells was > 100 µg/mL and > 234 µM; in the data set with MCF-7 cells, 82.8 µg/mL and 194 µM; in the data set on HepG2 cells, 84.5 µg/mL and 198 µM; with Caco-2 cells, > 100 µg/mL and > 234 µM; with A549 cells it was 217 µM and 92.7 µg/mL; in data set [1], > 100 µg/mL and > 234 µM. Further, on 15-LOX (setting [2]), the IC50 was above 234 µM.

For `C[C@@H]1CC[C@]2(C(=O)O)CC[C@]3(C(=O)O)C(=CCC4[C@@]5(C)CC[C@H](O)C(CO)(CO)C5CC[C@]43C)C2[C@H]1C` (stereo partly shown) [Compound 3, chletric acid], the IC50 in the data set on Vero cells was > 100 µg/mL and > 187 µM; in the data set with MCF-7 cells, > 100 µg/mL and > 187 µM; in the data set with HepG2 cells, 80 µg/mL and 150 µM; in the data set with Caco-2 cells, > 100 µg/mL and > 187 µM; with A549 cells, > 187 µM and > 100 µg/mL; in data set [1] it was > 100 µg/mL and > 187 µM. Besides, on 15-LOX (setting [2]), the IC50 is 42.4 µM and 41.2 µM.

With `COc1cccc2c1C(=O)c1c(O)c3c(c(O)c1C2=O)C[C@@](O)(C(=O)CO)C[C@@H]3O[C@H]1C[C@H](N)[C@H](O)[C@H](C)O1` [Doxorubicin, doxorubicin hydrochloride, reference compound], the IC50 is 4.85 ± 0.51 µM with Vero cells; 1.09 ± 0.06 µM in the data set with MCF-7 cells; 0.56 ± 0.05 µM in the data set on HepG2 cells; 4.97 ± 0.74 µM with Caco-2 cells; 0.71 ± 0.05 µM in the data set with A549 cells. In the data set on MCF-7 cells (IC50 of non-cancerous Vero cells divided by IC50 of MCF-7), the “SI values MCF7” value was 4.45. The “SI values HepG2” value with HepG2 cells worked out at 8.66. Also, the “SI values Caco-2” value in the data set with Caco-2 cells (IC50 of non-cancerous Vero cells divided by IC50 of Caco-2) is recorded as 0.98. The “SI values A549” value with A549 cells (IC50 of non-cancerous Vero cells divided by IC50 of A549) is 6.83.

Consider `C[C@H]1[C@H](C)CC[C@]2(C(=O)O)CC[C@]3(C(=O)O)C(=CC[C@@H]4[C@@]5(C)CC[C@H](O)C(C)(C)[C@@H]5CC[C@]43C)[C@H]12` [Compound 8, quinovic acid], for which the IC50 in the data set on Vero cells was > 100 µg/mL and > 205 µM; in the data set on MCF-7 cells, 98 µg/mL and 201 µM; in the data set on HepG2 cells, 100 µg/mL and 205 µM; in the data set on Caco-2 cells it was 81.6 µg/mL and 168 µM; in the data set on A549 cells, 204 µM and 99.5 µg/mL; in data set [1], 86 µg/mL and 177 µM. This molecule had an IC50 against 15-LOX (IC50 values 15-LOX) of 71.9 µM.

As for `CC1(C)CC[C@]2(CO)CC[C@]3(C)C(=CC[C@@H]4[C@@]5(C)CC[C@H](O)C(C)(C)[C@@H]5CC[C@]43C)[C@@H]2C1` [Compound 7, erythrodiol], the IC50 is 84 µg/mL and 190 µM in the data set on Vero cells; > 100 µg/mL and > 226 µM in the data set on MCF-7 cells; 73.9 µg/mL and 167 µM in the data set with HepG2 cells; > 100 µg/mL and > 226 µM with Caco-2 cells; > 226 µM and > 100 µg/mL in the data set on A549 cells; 95.6 µg/mL and 216 µM in data set [1]. Moreover, the IC50 on 15-LOX (setting [2]) is 147 µM. Moreover, the “SI values HepG2” value with HepG2 cells is given as 1.13.

On to `O=c1c(O)c(-c2ccc(O)c(O)c2)oc2cc(O)cc(O)c12` [Quercetin, quercetin, reference compound], for which, in data set [1], the IC50 was 12.8 µg/mL and 42.5 µM.
